One data set deals with GSK-3β (Homo sapiens, UniProt P49841). The experiment in a line: Kinase luminescent assay (ADP-Glo), GSK-3β inhibition. Particulars: 25 μM ATP, 1 hour, room temperature; mean of quadruplicate of two experiments; read-out: IC50 against GSK-3β. It counts as biochemical. As to the method:
Kinase Luminescent Assay.
Kinase inhibition was assessed with the ADP-Glo Kinase Assay. […] The reaction mixture was incubated for 1 hour at room temperature followed by the addition of the ADP-Glo′ reagents according to the manufacturer's protocol. The kinase inhibitor staurosporine was used at 1 μM as a reference control. Each data point was collected in quadruplicate of two independent experiments.
In general terms: In ADP-Glo the light output rises with the ADP produced.

A further data set can be described thus: in vitro. The note with it: for Pe / R (percent recovery): 20 μM; for permeability compared to isoorientin 1: 5-hour incubation. On the procedure:
Samples were run in quadruplicate.
Oral administration is noninvasive and is preferred for chronical diseases such as Alzheimer's disease and other CNS disorders. […] In the PAMPA model, the amount of target compounds diffused from a donor compartment to an acceptor compartment through a tri-layer phospholipid pre-coated membrane are measured to assess oral-absorption potential of drug candidates. In the present study, 1, 4, 9, 17, 21 and 30 were evaluated with the PAMPA assay.

Data set [1] has as its system GSK-3β-mediated tau phosphorylation (pS396) in SH-SY5Y lysate. The data set can be described thus: Whole-cell lysate GSK-3β assay with human Tau pS396 ELISA. It counts as biochemical. Particulars: 2, 10 and 50 μM, 2 hours, 37° C., lysate with 0.25% GSK-3β. As to the method: Whole-Cell Lysate GSK-3β Assay.
The assay procedure was followed as described (Liang, et al. (2016) ACS Chem. Neurosci. 7:912-923). SH-SY5Y cells were washed with phosphate-buffered saline (PBS) and lysed with cell extraction buffer containing 10 mM Tris, pH 7.4, 100 mM NaCl, 1 mM EDTA, 1 mM EGTA, 1 mM NaF, 20 mM Na4P2O7, 2 mM Na3VO4, 1% Triton X-100, 10% glycerol, 0.1% sodium dodecyl sulfate (SDS), 0.5% sodium deoxycholate, 1 mM phenylmethanesulfonyl fluoride (PMSF) and a protease inhibitor cocktail. Lysate was diluted with kinase buffer (40 mM Tris, pH 7.5, 20 mM MgCl2, 50 μM DTT, 400 μM ATP) to afford a concentration of 5 μg/μL of total protein, and split into aliquots. Recombinant human GSK-3β was fortified into lysate aliquots to a final concentration of 0.25% (wt/wt) of total protein. A lysate aliquot fortified with heat-inactivated GSK-3β was used as a negative control. The fortified lysate aliquots were incubated with test sample or 5% DMSO vehicle at 37° C. for 2 hours followed by ELISA analysis.
The quantitative determination of phosphorylated human tau at GSK-3β specific pS396 site was conducted by taking 50 μL diluted cell lysate and using a specific antibody against human tau [pS396] in a sandwich ELISA according to the manufacturer's protocol. Tau phosphorylation was quantified by measuring the absorbance at 450 nm in a microtiter plate reader. The analysis was collected in quadruplicate of two independent experiments.
In general terms: In an ELISA, binding on a coated surface is turned into a signal by an enzyme label.

[2] abbreviates: pH 7.4, 5 hours, room temperature, mean ±SD.

Structures are written as SMILES. Entries after “also recorded” stand apart in the source; their conditions may differ.

GSK-3β, sequence (P49841 whole entry): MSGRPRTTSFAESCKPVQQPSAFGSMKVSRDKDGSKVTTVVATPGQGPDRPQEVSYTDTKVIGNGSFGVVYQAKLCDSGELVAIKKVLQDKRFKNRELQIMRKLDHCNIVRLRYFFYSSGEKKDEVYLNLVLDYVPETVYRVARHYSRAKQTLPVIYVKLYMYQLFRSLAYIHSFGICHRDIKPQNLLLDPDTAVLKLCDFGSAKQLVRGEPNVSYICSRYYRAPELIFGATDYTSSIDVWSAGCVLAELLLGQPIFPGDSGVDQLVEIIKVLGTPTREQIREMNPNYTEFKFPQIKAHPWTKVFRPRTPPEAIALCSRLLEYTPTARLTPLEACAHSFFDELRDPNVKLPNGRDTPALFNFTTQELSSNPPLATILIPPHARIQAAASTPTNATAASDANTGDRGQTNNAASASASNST

Turning to `O=c1cc(-c2ccc(O)c(O)c2)oc2cc(O)cc(O)c12` [Compound 4, luteolin, reference compound], the IC50 (in general, the midpoint of a concentration-inhibition curve) at GSK-3β was 3.1 µM. Moreover, in the data set “in vitro” (PAMPA, 5 h, pH 7.4), the Pe was 1.42 ± 0.07 ×10^−6 cm/s and the “R (percent recovery)” value is given as 43%. Further, the apparent permeability coefficient (Papp) – broadly, a coefficient for how fast a substance crosses the barrier – at 5 h, 20 µM in “in vitro” (PAMPA, pH 7.4) lay within 1 to 1.5 ×10⁻⁶ cm/s.

`COc1ccc(-c2cc(=O)c3c(OC)c([C@@H]4O[C@H](C(=O)NC(C)C)[C@@H](O)[C@H](O)[C@H]4O)c(OC)cc3o2)cc1OC` [Compound 9, (2S,3S,4R,5R,6S)-6-(2-(3,4-Dimethoxyphenyl)-5,7-dimethoxy-4-oxo-4H-chromen-6-yl)-3,4,5-trihydroxy-N-isopropyltetrahydro-2H-pyran-2-carboxamide]: the IC50 at GSK-3β turned out to be 5.4 ± 0.1 µM. Moreover, the “R (percent recovery)” value in “in vitro” (pH 7.4, 5 hours) is on record as 46%. Also, the Pe in the data set “in vitro” (setting [2]) is given as 1.55 ± 0.06 ×10^−6 cm/s. Besides, the “permeability compared to isoorientin 1” value in “in vitro” is recorded as “significant increase in permeability”. Also, the Permeability classification entry in “in vitro” (PAMPA) is on record as “high (high (Pe > 1.5 × 10^−6 cm/s))”. Also, in data set [1], the “GSK-3β-mediated tau hyperphosphorylation at pS396” value is “effectively attenuated tau hyperphosphorylation in a dose-dependent manner; also recorded: attenuate GSK-3β-mediated tau phosphorylation”.

`COc1ccc(-c2cc(=O)c3c(OC)c([C@@H]4O[C@H](C(=O)NC5CCC5)[C@@H](O)[C@H](O)[C@H]4O)c(OC)cc3o2)cc1OC` [Compound 15, (2S,3S,4R,5R,6S)—N-Cyclobutyl-6-(2-(3,4-dimethoxyphenyl)-5,7-dimethoxy-4-oxo-4H-chromen-6-yl)-3,4,5-trihydroxytetrahydro-2H-pyran-2-carboxamide]: at GSK-3β, the IC50 came to 61.9 ± 1.9 µM.

`COc1ccc(-c2cc(=O)c3c(OC)c([C@@H]4O[C@H](C(=O)NC5CCCC5)[C@@H](O)[C@H](O)[C@H]4O)c(OC)cc3o2)cc1OC` [Compound 16, (2S,3S,4R,5R,6S)—N-Cyclopentyl-6-(2-(3,4-dimethoxyphenyl)-5,7-dimethoxy-4-oxo-4H-chromen-6-yl)-3,4,5-trihydroxytetrahydro-2H-pyran-2-carboxamide]: the IC50 at GSK-3β was found to be 13.1 ± 1.1 µM.

In the case of `COc1ccc(-c2cc(=O)c3c(OC)c([C@@H]4O[C@H](C(=O)NC5CCCCC5)[C@@H](O)[C@H](O)[C@H]4O)c(OC)cc3o2)cc1OC` [Compound 17, (2S,3S,4R,5R,6S)—N-Cyclohexyl-6-(2-(3,4-dimethoxyphenyl)-5,7-dimethoxy-4-oxo-4H-chromen-6-yl)-3,4,5-trihydroxytetrahydro-2H-pyran-2-carboxamide], the IC50 on GSK-3β turned out to be 9 ± 1.3 µM. In “in vitro” (pH 7.4, 5 hours), the “R (percent recovery)” value turned out to be 20%. Besides, in the data set “in vitro” (setting [2]), the Pe is 1.77 ± 0.07 ×10^−6 cm/s. In addition, in “in vitro”, the “permeability compared to isoorientin 1” value is “significant increase in permeability”. In addition, the Permeability classification result in the data set “in vitro” (PAMPA) is given as “high (high (Pe > 1.5 × 10^−6 cm/s))”. Besides, in data set [1], the “GSK-3β-mediated tau hyperphosphorylation at pS396” value is reported as “effectively attenuated tau hyperphosphorylation in a dose-dependent manner; also recorded: attenuate GSK-3β-mediated tau phosphorylation”.

In the case of `COc1ccc(-c2cc(=O)c3c(OC)c([C@@H]4O[C@H](C(=O)NCC5CCCCC5)[C@@H](O)[C@H](O)[C@H]4O)c(OC)cc3o2)cc1OC` [Compound 18, (2S,3S,4R,5R,6S)—N-(Cyclohexylmethyl)-6-(2-(3,4-dimethoxyphenyl)-5,7-dimethoxy-4-oxo-4H-chromen-6-yl)-3,4,5-trihydroxytetrahydro-2H-pyran-2-carboxamide], the IC50 on GSK-3β came out at 26 ± 1.2 µM.

On to `COc1ccc(-c2cc(=O)c3c(OC)c([C@@H]4O[C@H](C(=O)NC56CC7CC(CC(C7)C5)C6)[C@@H](O)[C@H](O)[C@H]4O)c(OC)cc3o2)cc1OC` [Compound 19, (2S,3S,4R,5R,6S)—N-(Adamantan-1-yl)-6-(2-(3,4-dimethoxyphenyl)-5,7-dimethoxy-4-oxo-4H-chromen-6-yl)-3,4,5-trihydroxytetrahydro-2H-pyran-2-carboxamide], for which the IC50 on GSK-3β was found to be 33.5 ± 0.8 µM.

As to `COc1ccc(-c2cc(=O)c3c(OC)c([C@@H]4O[C@H](C(=O)Nc5ccccc5)[C@@H](O)[C@H](O)[C@H]4O)c(OC)cc3o2)cc1OC` [Compound 20, (2S,3S,4R,5R,6S)-6-(2-(3,4-Dimethoxyphenyl)-5,7-dimethoxy-4-oxo-4H-chromen-6-yl)-3,4,5-trihydroxy-N-phenyltetrahydro-2H-pyran-2-carboxamide], the IC50 on GSK-3β worked out at 19.7 ± 1.1 µM.

On to `COc1ccc(-c2cc(=O)c3c(OC)c([C@@H]4O[C@H](C(=O)NCc5ccccc5)[C@@H](O)[C@H](O)[C@H]4O)c(OC)cc3o2)cc1OC` [Compound 21, (2S,3S,4R,5R,6S)-6-(2-(3,4-Dimethoxyphenyl)-5,7-dimethoxy-4-oxo-4H-chromen-6-yl)-3,4,5-trihydroxy-N-benzyltetrahydro-2H-pyran-2-carboxamide], for which the IC50 at GSK-3β was determined as 15.8 ± 1.2 µM. The “R (percent recovery)” value in “in vitro” (pH 7.4, 5 hours) stood at 30%. Moreover, the Pe in “in vitro” (setting [2]) is 1.35 ± 0.08 ×10^−6 cm/s. Moreover, the “permeability compared to isoorientin 1” value in “in vitro” is “significant increase in permeability”. Besides, the Permeability classification entry in “in vitro” (PAMPA) is “medium (medium (1.0 × 10^−6 cm/s ≤ Pe ≤ 1.5 × 10^−6 cm/s))”. In addition, the “GSK-3β-mediated tau hyperphosphorylation at pS396” value in data set [1] is recorded as “effectively attenuated tau hyperphosphorylation in a dose-dependent manner; also recorded: attenuate GSK-3β-mediated tau phosphorylation”.

Take `COc1ccc(-c2cc(=O)c3c(OC)c([C@@H]4O[C@H](C(=O)Nc5nccs5)[C@@H](O)[C@H](O)[C@H]4O)c(OC)cc3o2)cc1OC` [Compound 23, (2S,3S,4R,5R,6S)-6-(2-(3,4-Dimethoxyphenyl)-5,7-dimethoxy-4-oxo-4H-chromen-6-yl)-3,4,5-trihydroxy-N-(thiazol-2-yl)tetrahydro-2H-pyran-2-carboxamide]: the IC50 at GSK-3β was 35.1 ± 1 µM.

Consider `COc1ccc(-c2cc(=O)c3c(OC)c([C@@H]4O[C@H](C(=O)NCCF)[C@@H](O)[C@H](O)[C@H]4O)c(OC)cc3o2)cc1OC` [Compound 26, (2S,3S,4R,5R,6S)-6-(2-(3,4-Dimethoxyphenyl)-5,7-dimethoxy-4-oxo-4H-chromen-6-yl)-3,4,5-trihydroxy-N-(2-fluoroethyl)tetrahydro-2H-pyran-2-carboxamide], for which the concentration for half-maximal inhibition (IC50) on GSK-3β came to 34.8 ± 1 µM.

Consider `COc1ccc(-c2cc(=O)c3c(OC)c([C@@H]4O[C@H](C(=O)N[C@H](C)C(F)(F)F)[C@@H](O)[C@H](O)[C@H]4O)c(OC)cc3o2)cc1OC` [Compound 31, (2S,3S,4R,5R,6S)-6-(2-(3,4-Dimethoxyphenyl)-5,7-dimethoxy-4-oxo-4H-chromen-6-yl)-3,4,5-trihydroxy-N—((R)-1,1,1-trifluoropropan-2-yl) tetrahydro-2H-pyran-2-carboxamide], for which the IC50 on GSK-3β is less than 20 µM.

On to `CNCCCN1c2ccccc2CCc2ccccc21` [Desipramine, reference compound], for which, in “in vitro” (PAMPA, 5 h, pH 7.4), the Pe is listed as 13.43 ± 0.91 ×10^−6 cm/s and the “R (percent recovery)” value is given as 96%.

The values above are taken from patent US11254700B2, “GSK-3β inhibitors and use thereof in methods of treatment” (UNIVERSITY OF HAWAII, priority 2017, dated 2022).
